Experimental data as given in ChEMBL document CHEMBL1201862, “PubChem BioAssay data set” (2004).
Calls of active or inactive are those of the source.

What was measured:
[1] = molecular target: T1, Tyrosine-protein phosphatase non-receptor type 7 (Homo sapiens, UniProt P35236); assay type: functional
T1 sequence (P35236 whole entry): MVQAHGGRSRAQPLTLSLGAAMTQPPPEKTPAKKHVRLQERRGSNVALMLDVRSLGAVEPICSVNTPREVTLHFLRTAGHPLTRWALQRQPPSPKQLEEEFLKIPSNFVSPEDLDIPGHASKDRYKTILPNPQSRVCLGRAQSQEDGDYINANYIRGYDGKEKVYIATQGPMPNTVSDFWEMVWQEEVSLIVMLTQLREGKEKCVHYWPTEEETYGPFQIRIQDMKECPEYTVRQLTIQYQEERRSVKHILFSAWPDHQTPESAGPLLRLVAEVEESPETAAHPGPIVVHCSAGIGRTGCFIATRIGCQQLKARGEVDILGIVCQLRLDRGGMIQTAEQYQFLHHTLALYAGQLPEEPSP

[2] = molecular target: T2, Dual specificity protein phosphatase 6 (Rattus norvegicus, UniProt Q64346); assay type: functional
T2 sequence (Q64346 whole entry): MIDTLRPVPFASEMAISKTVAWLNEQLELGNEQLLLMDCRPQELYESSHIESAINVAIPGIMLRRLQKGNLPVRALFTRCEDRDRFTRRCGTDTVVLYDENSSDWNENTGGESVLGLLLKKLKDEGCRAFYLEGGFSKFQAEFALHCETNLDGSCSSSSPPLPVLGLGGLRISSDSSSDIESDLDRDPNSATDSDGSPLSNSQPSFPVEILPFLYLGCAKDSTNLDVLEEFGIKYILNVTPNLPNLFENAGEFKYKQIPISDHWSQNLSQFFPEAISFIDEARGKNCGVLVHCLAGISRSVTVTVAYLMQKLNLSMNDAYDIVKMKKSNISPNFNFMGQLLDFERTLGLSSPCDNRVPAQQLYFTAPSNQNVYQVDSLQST

[3] = molecular target: Glyceraldehyde-3-phosphate dehydrogenase (Homo sapiens, UniProt P04406)
[4] = molecular target: T2, Dual specificity protein phosphatase 6
[5] = molecular target: G-protein coupled receptor 55 (Homo sapiens, UniProt Q9Y2T6); assay: GPR55 agonists via beta-arrestin recruitment, primary screen, imaging, U2OS cells, beta-arrestin-GFP redistribution (AID 1961); assay type: functional
[6] = molecular target: T3, NACHT, LRR and PYD domains-containing protein 1 (Homo sapiens, UniProt Q9C000); assay: NALP1 inhibitors in yeast, dose response, luminescent (AID 488860); assay type: functional
T3 sequence (Q9C000 whole entry): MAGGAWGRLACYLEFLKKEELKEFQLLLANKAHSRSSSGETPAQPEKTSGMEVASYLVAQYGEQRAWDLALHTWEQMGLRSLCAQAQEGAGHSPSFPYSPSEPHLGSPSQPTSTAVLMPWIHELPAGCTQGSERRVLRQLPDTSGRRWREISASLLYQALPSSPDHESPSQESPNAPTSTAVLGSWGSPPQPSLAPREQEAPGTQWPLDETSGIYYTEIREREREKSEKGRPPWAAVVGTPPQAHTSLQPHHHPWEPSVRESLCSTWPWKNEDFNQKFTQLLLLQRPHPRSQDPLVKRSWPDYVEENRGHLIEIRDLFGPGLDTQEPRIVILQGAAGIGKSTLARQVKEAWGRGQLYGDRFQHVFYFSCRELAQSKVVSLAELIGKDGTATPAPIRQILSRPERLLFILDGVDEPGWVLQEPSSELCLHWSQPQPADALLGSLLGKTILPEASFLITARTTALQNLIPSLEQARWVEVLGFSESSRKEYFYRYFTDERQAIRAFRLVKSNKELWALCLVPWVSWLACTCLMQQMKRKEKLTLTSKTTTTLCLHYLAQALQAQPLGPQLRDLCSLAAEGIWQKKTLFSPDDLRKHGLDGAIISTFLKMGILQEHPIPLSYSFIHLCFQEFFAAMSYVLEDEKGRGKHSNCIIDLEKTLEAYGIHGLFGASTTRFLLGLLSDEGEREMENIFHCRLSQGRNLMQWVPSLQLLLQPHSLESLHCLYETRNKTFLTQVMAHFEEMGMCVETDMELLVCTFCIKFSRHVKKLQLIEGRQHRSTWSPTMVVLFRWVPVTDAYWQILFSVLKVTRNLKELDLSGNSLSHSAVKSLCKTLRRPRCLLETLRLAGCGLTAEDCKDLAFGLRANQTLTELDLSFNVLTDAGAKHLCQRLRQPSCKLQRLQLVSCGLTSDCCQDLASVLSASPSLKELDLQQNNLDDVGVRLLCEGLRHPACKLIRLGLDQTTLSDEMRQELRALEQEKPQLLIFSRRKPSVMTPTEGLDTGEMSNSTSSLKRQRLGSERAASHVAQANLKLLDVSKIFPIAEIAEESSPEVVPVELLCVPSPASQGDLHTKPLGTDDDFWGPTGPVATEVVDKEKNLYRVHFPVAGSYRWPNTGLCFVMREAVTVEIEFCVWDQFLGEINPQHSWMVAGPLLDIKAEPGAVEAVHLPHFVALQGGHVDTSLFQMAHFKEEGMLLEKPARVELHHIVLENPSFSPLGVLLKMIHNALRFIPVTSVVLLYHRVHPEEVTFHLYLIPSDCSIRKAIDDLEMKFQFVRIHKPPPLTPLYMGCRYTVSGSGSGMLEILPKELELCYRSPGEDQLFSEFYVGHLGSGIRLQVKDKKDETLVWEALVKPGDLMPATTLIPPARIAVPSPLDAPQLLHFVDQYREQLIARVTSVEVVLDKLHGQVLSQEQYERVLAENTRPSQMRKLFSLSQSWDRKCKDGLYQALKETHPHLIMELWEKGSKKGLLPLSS

Saccharomyces cerevisiae = assay: NALP1 inhibitor project selectivity study, Caspase-1/ASC signal blockade IC50 in S. cerevisiae (AID 488863); assay type: functional, organism-based
[7] = A cytotoxicity screen of small molecule inhibitors of the PhoP region in Salmonella typhi identified in the primary screen. [Related pubchem assays: 1850, 1864, 1985 ]; assay type: functional
[8] = molecular target: T4, Replicative DNA helicase DnaB (Mycobacterium tuberculosis, UniProt P9WMR3); assay: DnaB intein splicing inhibitors, dose response, biochemical, cell-free fluorescence (AID 449749); assay type: functional
T4 sequence (P9WMR3 whole entry): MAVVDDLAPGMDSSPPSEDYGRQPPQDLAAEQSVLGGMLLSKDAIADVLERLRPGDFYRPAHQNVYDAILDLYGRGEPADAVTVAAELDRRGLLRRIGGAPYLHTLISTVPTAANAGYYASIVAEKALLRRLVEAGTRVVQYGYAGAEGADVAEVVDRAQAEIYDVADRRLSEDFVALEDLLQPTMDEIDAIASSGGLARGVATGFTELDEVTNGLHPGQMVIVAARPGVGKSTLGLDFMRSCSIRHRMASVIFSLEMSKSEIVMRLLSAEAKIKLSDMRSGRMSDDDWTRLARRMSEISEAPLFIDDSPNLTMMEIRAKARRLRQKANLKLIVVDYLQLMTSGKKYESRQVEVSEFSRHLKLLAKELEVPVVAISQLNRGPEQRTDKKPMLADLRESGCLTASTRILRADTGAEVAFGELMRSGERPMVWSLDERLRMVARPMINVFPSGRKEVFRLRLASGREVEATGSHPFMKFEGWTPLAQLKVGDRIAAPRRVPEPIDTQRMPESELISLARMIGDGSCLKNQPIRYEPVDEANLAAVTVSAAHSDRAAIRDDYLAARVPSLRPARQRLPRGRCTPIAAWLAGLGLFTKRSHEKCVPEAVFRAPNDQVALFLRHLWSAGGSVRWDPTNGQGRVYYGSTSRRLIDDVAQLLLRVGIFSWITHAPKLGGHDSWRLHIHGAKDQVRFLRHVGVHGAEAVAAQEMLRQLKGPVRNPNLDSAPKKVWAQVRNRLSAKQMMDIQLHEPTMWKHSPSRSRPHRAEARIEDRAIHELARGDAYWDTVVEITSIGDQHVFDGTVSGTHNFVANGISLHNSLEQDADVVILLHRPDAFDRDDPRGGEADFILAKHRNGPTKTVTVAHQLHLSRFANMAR

Protein RecA = molecular target: T5, Protein RecA (Mycobacterium tuberculosis, UniProt P9WHJ3); assay: Fluorescence Cell-Free Homogeneous Dose Retest to Identify Inhibitors of RecA-Intein Splicing Activity. [Related pubchem assays (depositor defined):AID2097, AID2223, AID489010, AID492950]; assay type: functional
T5 sequence (P9WHJ3 whole entry): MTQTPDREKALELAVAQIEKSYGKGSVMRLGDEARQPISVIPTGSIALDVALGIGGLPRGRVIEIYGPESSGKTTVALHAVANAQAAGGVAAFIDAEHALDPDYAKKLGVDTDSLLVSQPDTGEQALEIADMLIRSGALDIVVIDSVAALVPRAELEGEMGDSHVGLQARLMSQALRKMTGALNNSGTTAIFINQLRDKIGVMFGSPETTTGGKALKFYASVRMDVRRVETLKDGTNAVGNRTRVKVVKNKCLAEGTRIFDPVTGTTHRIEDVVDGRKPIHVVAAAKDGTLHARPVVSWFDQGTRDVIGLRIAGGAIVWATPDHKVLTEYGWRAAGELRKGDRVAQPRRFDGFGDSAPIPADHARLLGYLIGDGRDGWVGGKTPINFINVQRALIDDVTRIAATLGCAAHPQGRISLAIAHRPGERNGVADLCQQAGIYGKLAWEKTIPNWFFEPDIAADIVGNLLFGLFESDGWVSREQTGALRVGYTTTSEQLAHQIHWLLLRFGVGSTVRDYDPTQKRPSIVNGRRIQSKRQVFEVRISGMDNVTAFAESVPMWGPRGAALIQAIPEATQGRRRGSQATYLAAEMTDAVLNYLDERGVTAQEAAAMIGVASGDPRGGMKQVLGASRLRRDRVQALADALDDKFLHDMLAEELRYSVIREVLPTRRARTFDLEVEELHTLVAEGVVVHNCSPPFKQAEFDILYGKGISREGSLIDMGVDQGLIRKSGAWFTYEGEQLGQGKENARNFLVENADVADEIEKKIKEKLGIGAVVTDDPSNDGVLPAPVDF

[9] = inhibitors of intracellular T. cruzi replication, confirmation, NIH3T3 host cells, beta-gal luminescence (AID 2044); assay type: functional, cell-based;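 further: intracellular parasites grown in NIH/3T3 mouse fibroblasts as host cells; luminescent beta-galactosidase reporter signal from transgenic T. cruzi replicating inside host cells; inhibitors lower the luminescence signal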
[10] = cytotoxicity toward NIH3T3 fibroblasts, dose response, counter-screen, cell-based, ATP luminescence, mouse fibroblasts (AID 2010); assay type: functional;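 further: cells exposed to compound for about 90 hours before reading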
X-box-binding protein 1 = molecular target: T6, X-box-binding protein 1 (Homo sapiens, UniProt P17861); assay type: functional, Cricetulus griseus;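 further: confirmatory dose-response counter-screen serving a CHOP assay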
T6 sequence (P17861 whole entry): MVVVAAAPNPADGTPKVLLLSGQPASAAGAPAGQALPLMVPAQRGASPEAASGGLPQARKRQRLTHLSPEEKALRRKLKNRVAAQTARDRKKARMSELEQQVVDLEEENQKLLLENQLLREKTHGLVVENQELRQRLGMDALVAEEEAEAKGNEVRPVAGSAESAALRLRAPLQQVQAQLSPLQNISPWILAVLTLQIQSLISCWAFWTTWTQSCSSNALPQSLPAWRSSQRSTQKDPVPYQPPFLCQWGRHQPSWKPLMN

[11] = system: Streptococcus sp. 'group A'; assay: growth inhibition of control SK(-) GAS strain, dose response, counter-screen for streptokinase expression inhibitor project, luminescence, kanamycin, BacTiterGlo, confirmation (AID 1900); assay type: functional, organism-based
Streptokinase A = molecular target: T7, Streptokinase A (Streptococcus pyogenes serotype M1, UniProt P10520); assay: S. pyogenes streptokinase expression inhibitors, potency, dose response, plasminogen activation absorbance, OD405 (AID 1914); assay type: functional, Streptococcus pyogenes M1 GAS;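 further: secreted streptokinase activity via plasminogen activation per viability signal from cell pellet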
T7 sequence (P10520 whole entry): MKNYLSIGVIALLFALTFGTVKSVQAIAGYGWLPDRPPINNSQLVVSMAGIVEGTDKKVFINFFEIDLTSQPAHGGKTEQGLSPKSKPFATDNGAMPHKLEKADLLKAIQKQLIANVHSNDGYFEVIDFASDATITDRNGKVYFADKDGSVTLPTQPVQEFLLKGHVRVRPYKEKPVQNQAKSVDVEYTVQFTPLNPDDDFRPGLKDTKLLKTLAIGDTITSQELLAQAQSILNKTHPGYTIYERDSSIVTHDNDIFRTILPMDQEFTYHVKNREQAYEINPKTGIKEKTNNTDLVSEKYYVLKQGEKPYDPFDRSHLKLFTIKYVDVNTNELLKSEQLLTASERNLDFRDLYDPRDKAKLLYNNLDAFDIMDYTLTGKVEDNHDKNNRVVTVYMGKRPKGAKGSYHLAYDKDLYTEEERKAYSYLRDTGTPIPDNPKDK

Streptococcus = assay: Group A Streptococcus viability loss, dose response, counter-screen for streptokinase expression inhibitor project, luminescence, BacTiterGlo (AID 1915); assay type: functional, organism-based;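 further: potency for reduction of bacterial viability or growth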

G-protein coupled receptor 55, sequence (Q9Y2T6 whole entry, the tested form may be a part): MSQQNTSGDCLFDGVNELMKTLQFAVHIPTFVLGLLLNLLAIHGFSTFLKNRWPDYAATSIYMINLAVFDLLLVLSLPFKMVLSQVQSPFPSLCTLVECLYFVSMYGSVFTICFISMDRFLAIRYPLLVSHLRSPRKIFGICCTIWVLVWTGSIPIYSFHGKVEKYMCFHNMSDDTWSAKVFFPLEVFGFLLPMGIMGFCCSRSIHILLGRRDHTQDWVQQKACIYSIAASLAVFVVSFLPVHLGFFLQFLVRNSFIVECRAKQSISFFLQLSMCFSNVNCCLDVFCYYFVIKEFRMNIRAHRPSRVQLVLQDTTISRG
Glyceraldehyde-3-phosphate dehydrogenase, sequence (P04406 whole entry): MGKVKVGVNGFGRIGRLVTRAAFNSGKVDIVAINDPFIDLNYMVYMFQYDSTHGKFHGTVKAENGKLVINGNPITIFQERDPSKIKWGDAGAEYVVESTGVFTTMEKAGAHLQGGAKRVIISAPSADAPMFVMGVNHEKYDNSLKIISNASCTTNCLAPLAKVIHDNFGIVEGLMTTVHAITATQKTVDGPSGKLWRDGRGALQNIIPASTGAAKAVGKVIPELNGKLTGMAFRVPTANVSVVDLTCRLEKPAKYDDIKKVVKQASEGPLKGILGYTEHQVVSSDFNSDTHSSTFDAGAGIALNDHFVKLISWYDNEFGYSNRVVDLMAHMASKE

SMILES: Cc1cc(NC(=O)/C=C/c2cccs2)no1
- IC50 [1]: > 100 µM (not active)
- IC50 [2]: > 100 µM (inactive)
- IC50 [3]: 62.6 µM (active)
- IC50 [4]: > 100 µM (inactive)

SMILES: O=C(c1ccc2c(c1)N(Cc1ccccc1F)C(=O)c1ccccc1S2(=O)=O)N1CCCC1
- EC50 [5]: > 32 µM (inactive)

SMILES: CCOc1ccccc1N1CCN(C(=O)CCCc2nc3ccccc3s2)CC1
- IC50 [6]: 36.3 µM (active)
- IC50 (Saccharomyces cerevisiae): > 100 µM (inactive)

SMILES: Cc1cc(N=Nc2ccccc2)c(NCC(O)C(O)C(O)CO)cc1C (centres undefined)
- EC50 [7]: > 50 µM (active)

SMILES: COc1ccc(C=C(c2nc3ccccc3s2)c2nc3ccccc3s2)cc1O
- EC50 [5]: 3.05 µM (active)
- AC50 [8]: > 380 µM (inactive)
- EC50 (Protein RecA): 7.08 µM (active)

SMILES: O=C(CSc1nnc(-c2cccnc2)n1Cc1ccco1)c1ccc2ccccc2c1
- EC50 [7]: > 50 µM (active)

SMILES: Cc1ccc(/C=C2\SC(=S)N(c3cccnc3)C2=O)o1
- EC50 [9]: 2.36 µM (active)
- EC50 [7]: > 50 µM (active)
- EC50 [10]: > 60 µM (not active)

SMILES: C=CCn1c(COc2ccccc2)nnc1SC(C)C(=O)N/N=C/c1cc(Cl)ccc1O (centres undefined)
- Absolute IC50 (XBP1) (X-box-binding protein 1): 10 µM
- EC50 [11]: 2.77 µM (active)
- EC50 (Streptokinase A): > 150 µM (not active)
- EC50 (Streptococcus): 8.01 µM (active)
